From patent US20220023317A1, “PREVENTING OR MITIGATING CHEMOTHERAPY INDUCED ALOPECIA USING VITAMIN D” (Berg LLC, priority 2013, published 2022)

Assays:
[1] = system: HEKa cells; experiment: Keratinocyte growth with calcitriol titration; format: cell-based, human; settings: titration 0.008-2.0 μg/mL
Protocol: All experiments were conducted in 96-well plate format. Each well contained the same amount of HEKa cells in about 100 μL of media (usually between 2,000-5,000 cell/well). Calcitriol was dissolved in ethanol to make a stock solution. The stock solution was serially diluted 1:2 in the growth media, covering a range of between 4.0 μg/mL to about 15.5 ng/mL (9 test concentrations). […] All experiments were conducted in duplicates.

[2] = system: SkBr-3; experiment: Cell growth / viability assay; format: cell-based
[3] = system: SKMEL-28; experiment: Cell growth / viability assay; format: cell-based
[4] = system: PaCa2; experiment: Cell growth / viability assay; format: cell-based
[5] = system: HepG2; experiment: Cell growth / viability assay; format: cell-based
[6] = system: MIAC51 (chloroleukemia cells); experiment: Rats transplanted with chloroleukemia MIAC51, CTX with topical calcitriol; format: in vivo, rat; settings: cyclophosphamide, preliminary results
Protocol: For experiments in which rats were transplanted with chloroleukemia, on Day 5 after birth, rats were randomly divided into three groups of 45 each. All rats received 1×10^5 chloroleukemic cell line MIAC51 (i.p.) in 0.1 mL of serum free (SF) RPMI. MIAC51 were cultured in RPMI 1640 supplemented with L-glutamine and 10% fetal bovine serum at 37° C. in a 5% CO2, 100% humidity incubator. Cells were grown to 50% confluency (1.5×106 mL) collected in 50 mL conical tubes, centrifuged at 600 g×10 min. at room temperature and resuspended in SF-RPMI at a concentration of 1×10^6/mL. Group 1 rats received no further treatment. Group 2 rats received topical vehicle and CTX on day 13. […] Topical applications were performed as described above.
On day 23 after birth, a sample of blood was taken from all rats and differentials performed. Rats with leukemia were sacrificed, rats without leukemia were kept and a second differential performed on day 31, at any point if leukemia was detected, animals were sacrificed by CO2 asphyxiation.

[7] = system: scalp hair follicles; experiment: Rat model, duration of calcitriol treatment before chemotherapy; format: in vivo
From the text: While not wishing to be bound by any particular theory, it is believed that application of vitamin D to the scalp or any other area of skin having hair induces differentiation of hair follicles, which is required for the stage conversion of the hair from a growing anagen stage to an involuting catagen stage. […] In humans, a hair follicle of the scalp has a substantially longer anagen phase than that of animals. Indeed, at any time, at least 90% of hair follicles in a human scalp are in the anagen phase. It is believed that a short treatment duration is not sufficient to induce catagen stage in scalp hair follicles, which subsequently makes them more susceptible to cytotoxicity of chemotherapy. […] Continued application on a daily basis will ensure the maintenance of the catagen stage and extended protection throughout administration of multiple doses of a chemotherapeutic (e.g., taxane-containing) regimen.

[8] = 4-week dermal toxicity study in Gottingen Minipigs; settings: both, Gottingen, minipig, in vivo
Protocol: (§1) Observations for morbidity, mortality, injury, and the availability of food and water were conducted twice daily for all animals. Clinical observations were conducted weekly.

[9] = system: Gottingen Minipig; experiment: 4-week dermal toxicity study in Gottingen Minipigs; settings: dermal, twice daily, 29 days, 2.1 mL over 450 cm^2
Protocol: as §1

[10] = system: Sprague Dawley rats; experiment: PCA model, hair regrowth in alopecic rats; format: in vivo, rat; settings: 0.2 μg topical days 22-35, rats alopecic from cyclophosphamide or etoposide; controls day 42
Protocol: Topical application of 1,25(OH)2D3. 1,25(OH)2D3 was dissolved in absolute ethanol and applied topically with an applicator. Control animals were similarly treated with vehicle only. […] For CIA experiments, 1,25(OH)2D3 was given daily beginning on day 5 after birth and ending on day 10. […] For CIA and PCA, the experimental group was treated with 0.2 μg of 1,25(OH)2D3 in 150 μL of absolute ethanol applied topically over the head and neck. In both instances, the control group received ethanol vehicle only. Cyclophosphamide (35 mg/kg) was given intraperitoneally for one day only. […] Both chemotherapies were started at 11 days of age. Alopecia was recorded on the tenth day after the first dose of chemotherapy. […] Rats were randomized into two groups of ten rats each. One group received vehicle control, while the other received 0.2 μg 1,25(OH)2D3. […] Animals were observed until complete hair regrowth was obtained.

[11] = system: C3H/HeJ mouse; experiment: C3H/HeJ model of alopecia areata; format: in vivo; settings: 0.2 μg for 15 days, observed 30 days
Protocol: C3H/HeJ Model of Abpecia Areata. Retired breeders (8 months of age) were observed daily for the development of AA lesions. […] One group received ethanol vehicle control whereas the other received 0.2 μg 1,25(OH)2D3 in the alopecic lesions for 15 days.

[12] = system: guinea pigs; experiment: Skin sensitization study; format: in vivo, guinea pig; settings: calcitriol at 5.7 μg/g, topical patch induction and challenge
Protocol: Induction phase. […] The induction exposure was repeated at the same skin site once a week for 2 weeks. The vehicle and positive control groups composed of 5 male and 5 female guinea pigs, each of which were exposed in the same manner as the treatment group to propylene glycol/anhydrous ethanol or hexylcinnamic aldehyde (a known mild to moderate skin-sensitizer), respectively. Skin reactions were scored and recorded at approximately 24 hours after patch removal during the induction phase. After the last induction exposure, the animals remained untreated for two weeks before the challenge exposure.
Challenge phase. The challenge exposure was conducted two weeks after the final topical induction. The test article was topically applied to the Vehicle Control and Test Group at the concentration determined to be non-irritating in the irritation screen. The Vehicle Control Group was also challenged with the Vehicle. The Positive Control Groups received the positive control article. The challenge application sites were scored at approximately 24 and 48 hours after patch removal.

[13] = system: female C57BL/6 adolescent mice; settings: topical calcitriol; cited from earlier work
[14] = 0.1 μg/mL calcitriol supplement
[15] = 0.1 μg/mL calcitriol for two passages

C=C1/C(=C\C=C2/CCC[C@]3(C)[C@@H]([C@H](C)CCCC(C)(C)O)CC[C@@H]23)C[C@@H](O)C[C@@H]1O [Calcitriol, (1a.3B.5Z.7E)-9,10-secocholesta-5,7,10(19)-triene-1,3,25-triol]
stimulation of HEKa cell growth ([1]; lowest levels of calcitriol): 10-20% | calcitriol concentration at which cell growth is inhibited [1]: ≥ 1.0 µg/mL | effect of calcitriol on cell growth [2]: no significant growth promoting or growth inhibiting effects | effect of calcitriol on cytotoxic effect of Doxorubicin [2]: did not appear to appreciably alter | effect of calcitriol on cell growth [3]: no significant growth promoting or growth inhibiting effects | effect of calcitriol on cytotoxic effect of Doxorubicin [3]: did not appear to appreciably alter | 5-FU ED50 curve with vs without calcitriol [3, 14]: not significantly different | effect of calcitriol on cell growth [4]: no significant growth promoting or growth inhibiting effects | effect of calcitriol on cytotoxic effect of Doxorubicin [4]: did not appear to appreciably alter | response to doxorubicin, cisplatin, erlotinib after calcitriol exposure [4, 15]: did not alter | 5-FU ED50 curve with vs without calcitriol [4, 14]: not significantly different | effect of calcitriol on cytotoxic effect of Doxorubicin [5]: did not appear to appreciably alter | response to doxorubicin, cisplatin, erlotinib after calcitriol exposure [5, 15]: did not alter | 5-FU ED50 curve with vs without calcitriol [5, 14]: not significantly different | concentrations giving growth inhibition ([5]; high concentrations): > 0.5 µg/mL | concentrations giving growth stimulation ([5]; low concentrations): 0.05 to 0.25 µg/mL | protection of the cancer cells from chemotherapy [6]: have not shown protection of the cancer cells | daily application before chemotherapy required to see any protective effect [7]: at least four days | protection with 5 days of application before chemotherapy ([7]; increasing protection up to one week): moderate protection | NOAEL at 29 days [8]: 3.33 µg/kg | no-observed-adverse-effect-level (NOAEL) [9]: 10.31 µg/mL | day of total body hair regrowth [10]: 50 days | regrowth of hair in alopecic lesions [11]: No regrowth of hair | skin sensitization [12]: not determined to be a sensitizer | prevention of cyclophosphamide-induced alopecia [13]: failed to demonstrate efficacy | regrowth of pigmented hair shafts [13]: significantly accelerated, enhanced, and quantitatively improved
